The target in one test is KRAS G12D (Homo sapiens, UniProt P01116, G12D). Description: SOS-catalyzed nucleotide exchange assay, KRAS G12D (Procedure A). Particulars: guanine nucleotide exchange (GNE). The format is biochemical. The essentials: (§1)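 Compounds in 10-point 3-fold series sat 60 min with biotin-KRAS/Bodipy-GDP/Tb-streptavidin complex, then human SOS and 3 mM GTP were added. G13D: 1.25 nM KRAS, no SOS, 30 min. WT and G12D: 1 nM with 40 nM SOS, 60 min. G12C (C51S/C80L/C118S): 3 nM/40 nM, 60 min. Curves fitted from normalised TR-FRET 520/495 ratio.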
KRAS G12D, sequence (P01116 with tags, fused parts or gaps isoform P01116-2 G12D): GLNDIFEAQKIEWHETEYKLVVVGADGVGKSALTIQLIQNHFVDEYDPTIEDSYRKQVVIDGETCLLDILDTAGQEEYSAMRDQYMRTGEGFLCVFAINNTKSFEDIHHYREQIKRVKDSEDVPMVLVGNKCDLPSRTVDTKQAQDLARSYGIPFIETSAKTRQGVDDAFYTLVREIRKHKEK

The next test has as its target KRAS WT (Homo sapiens, UniProt P01116). Description: SOS-catalyzed nucleotide exchange assay, KRAS WT (Procedure A). The format is biochemical. Particulars: GNE. An outline of the steps:
as §1

The target in the next test is KRAS G12C (Homo sapiens, UniProt P01116, C118S/C51S/C80L/G12C). Description: SOS-catalyzed nucleotide exchange assay, KRAS G12C (Procedure A). The test is classed as biochemical. Particulars: GNE. From the text: (§2) Procedure for SOS-Catalyzed Nucleotide Exchange Assay for KRAS-WT, G12C/D/V, G13D, HRAS, and NRAS (Procedure A)
KRAS G12C, sequence (P01116 with tags, fused parts or gaps isoform P01116-2 G12C/C51S/C80L/C118S): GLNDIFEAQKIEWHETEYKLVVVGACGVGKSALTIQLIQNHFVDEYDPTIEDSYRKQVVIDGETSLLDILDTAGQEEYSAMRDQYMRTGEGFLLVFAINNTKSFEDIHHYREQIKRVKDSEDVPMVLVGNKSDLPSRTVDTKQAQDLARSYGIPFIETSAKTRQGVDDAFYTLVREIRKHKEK
(§3) Recombinant KRAS-G12C protein used in this assay has an additional triple mutation (C51S/C80L/C118S). Whereas KRAS-WT, G12D/V, G13D, HRAS and NRAS are in context of their WT protein sequence background. Specifically, the SOS-catalyzed nucleotide exchange assay utilizes a preformed TR-FRET complex containing a specific biotinylated RAS protein (KRAS-WT, G12C/V/D, G13D, HRAS, NRAS; described above) with Bodipy-GDP, and Terbium-streptavidin. Compounds are preincubated with this complex for 60 minutes. Subsequently, recombinant human SOS protein and unlabeled GTP are added to initiate the exchange reaction. Small molecule inhibitors stabilize the Bodipy-GDP complex whereas the untreated protein rapidly exchanges Bodipy-GDP for unlabeled GTP resulting in reduced TR-FRET signal.
(§4) To assemble the preformed TR-FRET complexes, each biotinylated RAS protein is diluted to 2 μM in an EDTA Buffer (20 mM HEPES pH 7.5, 50 mM sodium chloride, 10 mM EDTA, and 0.01% Tween) and incubated at room temperature for one hour. This mixture is then further diluted to 90 nM in an Assay Buffer (20 mM HEPES pH 7.5, 150 mM sodium chloride, 10 mM magnesium chloride, and 0.005% Tween) containing 15 nM of Terbium-Streptavidin (Invitrogen, catalog #PV3577) and 900 nM of Bodipy-GDP (Invitrogen, catalog #G22360) and incubated at room temperature for six hours. It should be noted that this preformed TR-FRET complex for each of the RAS protein were made ahead of time, aliquoted and stored at −80° C. until the day of the experiment.
(§5) Each test compound (10 mM stock in DMSO) is diluted in DMSO to make a final-10-point, 3-fold dilution and is acoustically dispensed into a 384-well assay plate (Corning, catalog #3820) using an Echo 550 (Labcyte). Each well of the assay plate receives 3 μL of a specific 3×RAS preformed TR-FRET complex and 3 μL of Assay Buffer and is incubated at room temperature for 60 minutes (preincubation time). Each well then receives 3 μL of 3× recombinant human SOS protein and GTP (Sigma, G8877) in Assay Buffer and is incubated at room temperature for 30 minutes (G13D), 60 minutes (KRAS WT/G12C/D, H/NRAS) or 90 minutes for G12V. The final reaction in each well of 9 μL consists of 3 mM GTP, specific Ras and SOS proteins in the following concentrations: KRAS-G12C/SOS=3 nM/40 nM, KRAS-WT and G12D/SOS=1 nM/40 nM, KRAS-G12V/SOS=1.25 nM/160 nM, KRAS-G13D/SOS=1.25 nM/0 nM, HRAS and NRAS=1.25 nM/40 nM.
(§6) The time-resolved fluorescence resonance energy transfer (TR-FRET) signal is measured on an Envision (PerkinElmer) plate reader: Excitation filter=340 nm; emission1=495 nm; emission2=520 nm; dichroic mirror=D400/D505; delay time=[…]. The signal of each well is determined as the ratio of the emission at 520 nm to that at 495 nm. Percent effect of each well is determined after normalization to control wells containing DMSO (no effect) or a saturating concentration of inhibitor (max effect). The apparent effect as a function of compound concentration is fit to a four-parameter logistic equation.
(§7) For Example No. 14, nucleotide exchange assays for KRAS G12D, WT, G12C, and G12V were performed according to Procedure B. All the other compounds were tested according to Procedure A.

In the next test the target is KRAS G12V (Homo sapiens, UniProt P01116, G12V). The test is described as follows: SOS-catalyzed nucleotide exchange assay, KRAS G12V (Procedure A). The format is biochemical. The note with it: GNE. The essentials:
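Biotinylated KRAS G12V was loaded with Bodipy-GDP alongside Terbium-streptavidin to form a TR-FRET complex, which was preincubated with compounds for 60 minutes in 384-well plates. Human SOS protein and unlabeled GTP were then added for 90 minutes, giving final concentrations of 1.25 nM KRAS-G12V, 160 nM SOS and 3 mM GTP. The 520/495 nm emission ratio was read on an Envision.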

For the next test, the target named is KRAS G13D (Homo sapiens, UniProt P01116, G13D). Description: SOS-catalyzed nucleotide exchange assay, KRAS G13D (Procedure A). The note with it: GNE. The format is biochemical.
KRAS G13D, sequence (P01116 with tags, fused parts or gaps isoform P01116-2 G13D): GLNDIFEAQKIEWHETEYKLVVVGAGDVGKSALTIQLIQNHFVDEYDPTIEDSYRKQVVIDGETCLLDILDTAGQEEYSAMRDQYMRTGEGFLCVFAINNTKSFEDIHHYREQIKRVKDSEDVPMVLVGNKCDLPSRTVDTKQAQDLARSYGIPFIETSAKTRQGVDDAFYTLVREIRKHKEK
From the text: as §2, §3, §4, §5, §6, §7

In a further test the target is HRAS (Homo sapiens, UniProt P01112). The test is described as follows: SOS-catalyzed nucleotide exchange assay, HRAS (Procedure A). The test is classed as biochemical. The note with it: GNE.
HRAS, sequence (P01112 with tags, fused parts or gaps): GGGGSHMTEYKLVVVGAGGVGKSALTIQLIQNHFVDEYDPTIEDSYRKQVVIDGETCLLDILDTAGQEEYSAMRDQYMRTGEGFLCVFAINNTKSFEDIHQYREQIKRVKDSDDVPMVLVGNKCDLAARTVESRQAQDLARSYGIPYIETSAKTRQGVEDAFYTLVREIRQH
From the text: as §2, §3, §4, §5, §6, §7

Another test has as its target NRAS (Homo sapiens, UniProt P01111). Description: SOS-catalyzed nucleotide exchange assay, NRAS (Procedure A). The test is classed as biochemical. Particulars: GNE.
From the text: as §2, §3, §4, §5, §6, §7

The next test concerns the target T1, AsPC-1 cells (Homo sapiens, UniProt P01116, G12D).
T1 construct: p-ERK/total ERK AlphaSureFire read-out
Description: Cellular phospho-ERK assay, AsPC-1 cells (KRAS G12D). The format is cell-based. The note with it: 2 hours, read-out: AsPC1 pERK IC50. The essentials: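 Compound was titrated 10-point in 3-fold steps (top 30 μM) on KRAS G12D homozygous pancreatic lines PANC08.13 and AsPC-1 for 2 h at 37 °C. The p-ERK/total ERK ratio was measured by multiplex AlphaLISA SureFire and fitted with a 4-parameter logistic model to give IC50.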

The text below walks through data of patent US20260347372A1, “SMALL MOLECULE INHIBITORS OF KRAS G12D MUTANT” (MERCK SHARP & DOHME LLC, priority 2023, published 2026).

The IC50 is the concentration that inhibits the measured activity by half.

NRAS, sequence (P01111 with tags, fused parts or gaps): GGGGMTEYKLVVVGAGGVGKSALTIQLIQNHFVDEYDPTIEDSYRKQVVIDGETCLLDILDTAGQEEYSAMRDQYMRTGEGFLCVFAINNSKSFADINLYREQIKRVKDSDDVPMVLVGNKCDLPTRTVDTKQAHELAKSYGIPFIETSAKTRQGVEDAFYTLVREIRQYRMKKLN
T1 sequence (P01116 1-188 isoform P01116-2 G12D): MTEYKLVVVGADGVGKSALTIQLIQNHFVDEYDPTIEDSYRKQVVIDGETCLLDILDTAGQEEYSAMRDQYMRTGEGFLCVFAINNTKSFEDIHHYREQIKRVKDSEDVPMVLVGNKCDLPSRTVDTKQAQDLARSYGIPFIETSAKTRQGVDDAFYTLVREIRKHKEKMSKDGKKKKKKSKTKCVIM
KRAS WT, sequence (P01116 with tags, fused parts or gaps isoform P01116-2): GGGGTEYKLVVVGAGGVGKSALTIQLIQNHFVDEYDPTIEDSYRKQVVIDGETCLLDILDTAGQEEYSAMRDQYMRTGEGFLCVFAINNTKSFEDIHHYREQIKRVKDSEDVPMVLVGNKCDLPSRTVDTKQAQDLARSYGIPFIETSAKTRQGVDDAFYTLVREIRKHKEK
KRAS G12V, sequence (P01116 with tags, fused parts or gaps isoform P01116-2 G12V): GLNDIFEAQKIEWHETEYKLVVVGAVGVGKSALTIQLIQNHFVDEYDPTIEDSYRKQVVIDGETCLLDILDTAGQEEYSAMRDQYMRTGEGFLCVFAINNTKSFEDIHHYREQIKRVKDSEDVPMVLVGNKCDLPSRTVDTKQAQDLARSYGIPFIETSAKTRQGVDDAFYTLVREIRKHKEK

For the compound `Cc1cc2[nH]ncc2c(-c2nccc3c2sc2nc(OC[C@@]45CCCN4C[C@H](F)C5)nc(N4C[C@@H]5C[C@H]4CN5)c23)c1C(F)(F)F` [Ex-69, 4-((1S,4S)-2,5-diazabicyclo[2.2.1]heptan-2-yl)-2-(((2R,7aS)-2-fluorotetrahydro-1H-pyrrolizin-7a(5H)-yl)methoxy)-8-(6-methyl-5-(trifluoromethyl)-1H-indazol-4-yl)pyrido[4′,3′:4,5]thieno[2,3-d]pyrimidine], the IC50 on KRAS G12D was 35.6 nM; against KRAS WT it was 4910 nM; at KRAS G12C, 1740 nM; on KRAS G12V it was > 11100 nM; against KRAS G13D, 1210 nM; against HRAS, > 11100 nM. Further, the IC50 is > 11100 nM on NRAS and 1540 nM on AsPC-1 cells.

Consider `CN(C)C[C@@]1(COc2nc(N3C[C@H]4CC[C@@H](C3)N4)c3c(n2)sc2c(-c4c(C5CC5)c(Cl)cc5[nH]ncc45)nccc23)CC1(F)F` [Ex-21, 1-((1R)-1-(((4-((1R,5S)-3,8-diazabicy-clo[3.2.1]octan-3-yl)-8-(6-chloro-5-cyclopropyl-1H-indazol-4-yl)pyrido [4′,3′:4,5]thieno [2,3-d]pyrimidin-2-yl)oxy)methyl)-2,2-difluoro-cyclopropyl)-N,N-dimethyl-methanamine], for which the IC50 was 7.89 nM against KRAS G12D; 2800 nM against KRAS WT; 457 nM at KRAS G12C; 5000 nM on KRAS G12V; 486 nM against KRAS G13D; > 11100 nM at HRAS. Also, the IC50 was > 11100 nM on NRAS and 612 nM at AsPC-1 cells.

As for `Cc1cc2[nH]ncc2c(-c2nccc3c2sc2nc(OC[C@@]45CCCN4C[C@H](F)C5)nc(N4[C@@H]5CC[C@H]4CNC5)c23)c1C(F)(F)F` [Ex-71, 4-((1R,5S)-3,8-diazabicyclo[3.2.1]octan-8-yl)-2-(((2R,7aS)-2-fluorotetrahydro-1H-pyrrolizin-7a(5H)-yl)methoxy)-8-(6-methyl-5-(trifluoromethyl)-1H-indazol-4-yl)pyrido[4′,3′:4,5]thieno[2,3-d]pyrimidine], the half-inhibitory concentration (IC50) is 34.8 nM at KRAS G12D; 8090 nM against KRAS WT; 1100 nM at KRAS G12C; 5160 nM against KRAS G12V; 2510 nM on KRAS G13D; > 11100 nM against HRAS. For the same compound, the IC50 against NRAS was > 11100 nM; at AsPC-1 cells, 885 nM.

As for `Cc1cc2[nH]ncc2c(-c2nccc3c2sc2nc(OC[C@@]45CCCN4C[C@H](F)C5)nc(N4CC5CC(C4)N5)c23)c1C(F)(F)F` [Ex-67, 4-(3,6-diazabicyclo[3.1.1]heptan-3-yl)-2-(((2R,7aS)-2-fluorotetrahydro-1H-pyrrolizin-7a(5H)-yl)methoxy)-8-(6-methyl-5-(trifluoromethyl)-1H-indazol-4-yl)pyrido[4′,3′:4,5]thieno[2,3-d]pyrimidine], the IC50 on KRAS G12D was 13.1 nM; against KRAS WT it was 856 nM; against KRAS G12C, 265 nM; at KRAS G12V, 672 nM; against KRAS G13D, 323 nM; on HRAS it was > 11100 nM. The IC50 against NRAS was > 11100 nM; on AsPC-1 cells, 699 nM.

Regarding `Cc1cc2[nH]ncc2c(-c2nccc3c2sc2nc(OCC4(S(C)(=O)=O)CC4)nc(N4C[C@H]5CC[C@@H](C4)N5)c23)c1C(F)(F)F` [Ex-33, 4-((1R,5S)-3,8-diazabicyclo[3.2.1]octan-3-yl)-8-(6-methyl-5-(trifluoromethyl)-1H-indazol-4-yl)-2-((1-(methylsulfonyl)cyclopropyl)meth-oxy)pyrido[4′,3′:4,5]thieno[2,3-d]pyrimidine], the IC50 on KRAS G12D is 7970 nM; against KRAS WT, > 11100 nM; against KRAS G12C it was > 11100 nM; at KRAS G12V, > 11100 nM; against KRAS G13D, > 11100 nM; on HRAS it was > 11100 nM. For the same compound, the IC50 against NRAS is > 11100 nM; on AsPC-1 cells, 20200 nM.

As for `Cc1cc2[nH]ncc2c(-c2nccc3c2sc2nc(OC[C@]4(C#N)C[C@H]4S(C)(=O)=O)nc(N4C[C@H]5CC[C@@H](C4)N5)c23)c1C(F)(F)F` [Ex-32, (1R,2R)-1-(((4-((1R,5S)-3,8-diazabicyclo[3.2.1]octan-3-yl)-8-(6-methyl-5-(trifluoromethyl)-1H-indazol-4-yl)pyrido[4′,3′:4,5]thieno[2,3-d]pyrimidin-2-yl)oxy)methyl)-2-(methylsulfonyl)cyclopropane-1-carbonitrile], the IC50 is 1020 nM against KRAS G12D; > 11100 nM at KRAS WT; > 11100 nM against KRAS G12C; > 11100 nM against KRAS G12V; > 11100 nM at KRAS G13D; > 11100 nM on HRAS. The figures for the IC50 against NRAS and at AsPC-1 cells were > 11100 nM and > 30000 nM, respectively.

Turning to `C#Cc1cccc2cc3[nH]ncc3c(-c3nccc4c3sc3nc(OC[C@@]56CCCN5C[C@H](F)C6)nc(N5C[C@H]6CC[C@@H](C5)N6)c34)c12` [Ex-55, 4-((1R,5S)-3,8-diazabicyclo[3.2.1]octan-3-yl)-8-(5-ethynyl-1H-benzo[f]indazol-4-yl)-2-(((2R,7aS)-2-fluorotetrahydro-1H-pyrrolizin-7a(5H)-yl)methoxy)pyrido[4′,3′:4,5]thieno[2,3-d]pyrimidine], the IC50 against KRAS G12D is 1.31 nM; against KRAS WT, 148 nM; against KRAS G12C it was 73.9 nM; against KRAS G12V, 105 nM; on KRAS G13D it was 42.5 nM; at HRAS, > 11100 nM. Also, the IC50 at NRAS is > 11100 nM; on AsPC-1 cells, 25 nM.

As for `Cc1cc2[nH]ncc2c(-c2nccc3c2sc2nc(OCC4(C#N)CCOCC4)nc(N4C[C@H]5CC[C@@H](C4)N5)c23)c1C(F)(F)F` [Ex-38, 4-(((4-((1R,5S)-3,8-diazabicyclo[3.2.1]octan-3-yl)-8-(6-methyl-5-(trifluoromethyl)-1H-indazol-4-yl)pyrido[4′,3′:4,5]thieno[2,3-d]pyrimidin-2-yl)oxy)methyl)tetrahydro-2H-pyran-4-carbonitrile], the IC50 was 3790 nM against KRAS G12D; > 11100 nM on KRAS WT; > 11100 nM on KRAS G12C; > 11100 nM against KRAS G12V; 3550 nM on KRAS G13D; > 11100 nM at HRAS. Besides, the IC50 on NRAS is > 11100 nM; at AsPC-1 cells, > 30000 nM.
